Test results from patent US8212022B2, “Effect of carbohydrate concentration on sucralose extraction efficiency” (Tate & Lyle Technology Limited, priority 2008, dated 2012).

Assay: Partition coefficient K of sucralose between ethyl acetate and water (equal volumes)
Assay type: physicochemical
Conditions: for partition coefficient, K: equal volumes of ethyl acetate and water
Description: Unless the context indicates otherwise, in the specification and claims, the terms organic solvent, first organic solvent, second organic solvent, tetrachloro saccharide, trichloro saccharide, dichloro saccharide, salt, sucralose-6-ester, carbohydrate, and similar terms also include mixtures of such materials. The term saccharide includes monosaccharide, disaccharides, and polysaccharides. Solvent means a liquid that dissolves another material. An aqueous solvent is one in which water is the primary (greater than 50 vol % of the solvents present) or only solvent. Partition coefficient, K, of a carbohydrate between an organic solvent and water is the concentration of the carbohydrate in the organic phase divided by the concentration of the carbohydrate in the aqueous phase when equal volumes of organic solvent and water are used. […] Crystallization includes processes in which a solution is rendered saturated or supersaturated with respect to a dissolved component, and the formation of crystals of this component is achieved. The initiation of crystal formation can be spontaneous, or it can require the addition of seed crystals. Crystallization also describes the situation in which a solid or liquid material is dissolved in a solvent to yield a solution which is then rendered saturated or supersaturated so as to obtain crystals. Also, included in the term crystallization are the ancillary processes of washing the crystals with one or more solvents, drying the crystals, and harvesting the final product so obtained. Unless otherwise specified, all percentages are percentages by weight, all temperatures are in degrees Centigrade (degrees Celsius), and all solvent ratios are volume to volume.
Aqueous solutions of sucralose were prepared at various carbohydrate concentrations. An equal volume of ethyl acetate was then added to each solution and the two phases mixed thoroughly. After the two phases separated, the carbohydrate concentration in each phase was determined. The K value was calculated by dividing the concentration of sucralose in the ethyl acetate phase by the concentration of sucralose in the aqueous phase.

| partition coefficient, K (initial concentration of sucralose in the aqueous phase about 5 wt %) | partition coefficient, K (initial concentration of sucralose in the aqueous phase about 15 wt %) | partition coefficient, K (initial concentration of sucralose in the aqueous phase about 16 wt %) | SMILES | partition coefficient compared with sucralose (organic solvent such as ethyl acetate and water, equal volumes, same conditions as sucralose) |
| --- | --- | --- | --- | --- |
| 0.4 | about 1.1 | about 1.2 | OC[C@H]1O[C@H](O[C@]2(CCl)O[C@H](CCl)[C@@H](O)[C@@H]2O)[C@H](O)[C@@H](O)[C@H]1Cl [sucralose, 4,1′,6′-trichloro-4,1′,6′-trideoxygalactosucrose] | – |
| – | – | – | CC(=O)OC[C@H]1O[C@H](O[C@]2(CCl)O[C@H](CCl)[C@@H](O)[C@@H]2O)[C@H](O)[C@@H](O)[C@H]1Cl [sucralose-6-acetate] | larger that the corresponding value for sucralose |
